Measurements as given in publication PMC6269853, “Synthesis and Biological Evaluation of Unsymmetrical Curcumin Analogues as Tyrosinase Inhibitors” (Molecules, 2013).

What was measured:
mushroom tyrosinase [1] = test: Diphenolase inhibitory activity of mushroom tyrosinase (L-DOPA oxidation, spectrophotometric); type: biochemical; conditions: for IC50: L-DOPA 0.5 mM, pH 6.8, 25 °C
Protocol: UCAs 3a–k, 4a–i were subjected to tyrosinase inhibitory assays by measuring the oxidation of L-DOPA according to the literature protocol.
The spectrophotometric assay for tyrosinase was performed according to the reported method with slight modifications. Briefly, all the synthesized compounds were screened for the diphenolase inhibitory activity of tyrosinase using L-DOPA as the substrate. All compounds were dissolved in DMSO. The final concentration of the test solution was 2.0%. Phosphate buffer (pH = 6.8) was used to dilute the DMSO stock solution of test compounds. Thirty units of mushroom tyrosinase (0.5 mg/mL) were firstly pre-incubated with these compounds in 50 mM phosphate buffer (pH = 6.8) at 25 °C for 10 min. L-DOPA (0.5 mM) was then added to the reaction mixture and the enzyme reaction was monitored by measuring the change in absorbance at 475 nm of the formation of L-DOPA chrome for 1 min. The measurement was performed for three times for each concentration and averaged before further calculations. IC50 values were determined by the interpolation of the dose–response curves.

mushroom tyrosinase [2] = test: Inhibition kinetics by Lineweaver-Burk plots; type: biochemical; conditions: oxidation of L-DOPA
Protocol: The inhibitory mechanism of selected compounds 3c, 3d, 3i and 3j against mushroom tyrosinase during the oxidation of L-DOPA was determined by the same methods. […] However, 3d and 3j containing m-dihydroxyl groups on ring B were competitive inhibitors because the intersection of those straight lines was on the Y-axis.
Concentrations of 3c, 3d, 3i and 3j for curves 1–3 were 0.0 μM, 4.06 μM, 12.18 μM; 0.0 μM, 4.06 μM, 16.23 μM; 0.0 μM, 14.8 μM, 59.2 μM; 0.0 μM, 3.70 μM, 11.09 μM, respectively.
Pre-incubation and measurement time was the same as the procedure in section 3.3. Maximal initial velocity was determined from initial linear portion of absorbance between 0 and 60 s after addition of mushroom tyrosinase. The inhibition type on the enzyme was assayed by Lineweaver–Burk plots, and the inhibition constant was determined by the second plots of the apparent Km/Vm or 1/Vm versus the concentration of compound. The same procedure was executed for other compounds.

CD-1 mice = test: Acute oral toxicity in mice (OECD 423); type: in vivo; conditions: for Body Weight: last day; for Drinking Water / Food Intake: measured daily and averaged; for autopsy, changes in organs: mice, 1,200 mg/kg, end of experimental period (14 days)
Protocol: 3d and 3j were used as the representative compounds to evaluate the toxicity in mice.
The acute toxicity of compound 3d was examined according to the OECD 423 Guideline for Testing of Chemicals Acute Oral Toxicity – Acute Toxic Class Method procedures. The test procedure was applied with an initial dose at 1,200 mg/kg. Male and female CD-1 mice (six males and six females; 7~8 weeks old) were obtained from Center of Animal Test of the Sun Yat-sen University, housed in the University-approved animal facility in rooms maintained at 22 ± 2 °C with 55%–60% humidity and 12 h photoperiod. After five-day adaptation to laboratory conditions, mice were divided into four equal groups (controls: male, female, and treated: male and female, three animals in each group, equal body mass) and given by gavage either a single dosage of 1,200 mg 3d (dispersed in 3% Tween 80 aqueous solution)/kg, and equal volumes of distilled water containing 3% Tween 80 for control groups, using a suitably graduated syringe and a stainless steel intubation cannula. Mice had free access to distilled water and commercial standard diet. Animals were observed individually after dosing at least once during the first 30 min, periodically during the first 24 h, with special attention given during the first 4 h, and daily thereafter, for a total of 14 days. All observations were systematically recorded with individual records being maintained for each animal. Individual body weight of animals was determined shortly before the test substance was administered and weekly thereafter. All the animals were sacrificed at the end of the observation period and subjected to a necropsy. The same procedure was performed for compound 3j.

IC50 (mushroom tyrosinase [1])	melting point	Compound	also measured
173 µM	241 to 243 °C	COc1cc(C=C2CCC(=Cc3ccc(O)cc3)C2=O)cc(Br)c1O [Compound 3g, 2-(3-Bromo-4-hydroxy-5-methoxybenzylidene)-5-(4-hydroxybenzylidene)cyclopentanone]	
9.66 µM	259 to 261 °C	COc1cc(C=C2CCC(=Cc3ccc(O)cc3)C2=O)cc(OC)c1O [Compound 3e, 2-(4-Hydroxy-3,5-dimethoxybenzylidene)-5-(4-hydroxybenzylidene)cyclopentanone]	
183 µM	114 to 116 °C	COc1ccc(C=CC(=O)C=Cc2ccc(O)cc2)cc1 [Compound 4a, 1-(4-Hydroxyphenyl)-5-(4-methoxyphenyl)penta-1,4-dien-3-one]	
46.2 µM	98 to 101 °C	COc1cc(C=CC(=O)C=Cc2ccc(O)cc2)ccc1O [Compound 4b, 1-(4-Hydroxy-3-methoxyphenyl)-5-(4-hydroxyphenyl)penta-1,4-dien-3-one]	
> 200 µM	129 to 131 °C	COc1cc(C=C2CCC(=Cc3cc(OC)c(O)c(OC)c3)C2=O)ccc1O [Compound 3k, 2-(4-Hydroxy-3,5-dimethoxybenzylidene)-5-(4-hydroxy-3-methoxybenzylidene)cyclopentanone]	
< 100 µM		1-(4-Hydroxy-3,5-dimethoxyphenyl)-5-(4-hydroxy-3-methoxyphenyl)penta-1,4-dien-3-one [Compound 4h]	fold difference in activity versus 4c (mushroom tyrosinase [1]; decrease relative to 4c (IC50 = 4.64 μM)): > 16 fold
> 200 µM		1-(3,4-Dihydroxyphenyl)-5-(4-methoxyphenyl)penta-1,4-dien-3-one [Compound 4i]	
> 200 µM	110 to 113 °C	O=C(C=Cc1ccc(O)cc1)C=Cc1cc(Br)c(O)c(Br)c1 [Compound 4e, 1-(3,5-Dibromo-4-hydroxyphenyl)-5-(4-hydroxyphenyl)penta-1,4-dien-3-one]	
56.6 µM	278 to 280 °C	COc1cc(C=C2CCC(=Cc3ccc(O)cc3)C2=O)ccc1O [Compound 3b, 2-(4-Hydroxy-3-methoxybenzylidene)-5-(4-hydroxybenzylidene)cyclopentanone]	fold difference in activity versus 3c (mushroom tyrosinase [1]; decrease relative to 3c): > 8 fold
7.78 µM	> 300 °C	O=C1C(=Cc2ccc(O)cc2)CCC1=Cc1ccc(O)c(O)c1 [Compound 3c, 2-(3,4-Dihydroxybenzylidene)-5-(4-hydroxybenzylidene)cyclopentanone]	inhibition type (mushroom tyrosinase [2]): mixed-competitive
4.64 µM	181 to 183 °C	O=C(C=Cc1ccc(O)cc1)C=Cc1ccc(O)c(O)c1 [Compound 4c, 1-(3,4-Dihydroxyphenyl)-5-(4-hydroxyphenyl)penta-1,4-dien-3-one]	
> 200 µM	286 to 288 °C	O=C1C(=Cc2ccc(O)cc2)CCC1=Cc1cc(Br)c(O)c(Br)c1 [Compound 3h, 2-(3,5-Dibromo-4-hydroxybenzylidene)-5-(4-hydroxybenzylidene)cyclopentanone]	
		COc1cc(C=C2CCC(=Cc3ccc(O)cc3O)C2=O)ccc1O [Compound 3j, 2-(2,4-Dihydroxybenzylidene)-5-(4-hydroxy-3-methoxybenzylidene)cyclopentanone]	inhibition type (mushroom tyrosinase [2]): competitive; Body Weight (CD-1 mice; female CD-1 mice, 1,200 mg/kg): 26.9 ± 2.1 g; Drinking Water (CD-1 mice; female CD-1 mice, 1,200 mg/kg): 4.1 ± 0.4 mL/day; Food Intake (CD-1 mice; female CD-1 mice, 1,200 mg/kg): 3.9 ± 0.5 g/day; Body Weight (CD-1 mice; male CD-1 mice, 1,200 mg/kg): 30.1 ± 2.8 g; Drinking Water (CD-1 mice; male CD-1 mice, 1,200 mg/kg): 5.4 ± 0.5 mL/day; Food Intake (CD-1 mice; male CD-1 mice, 1,200 mg/kg): 5.2 ± 0.4 g/day; autopsy, changes in organs (CD-1 mice): no apparent changes
	> 300 °C	COc1cc(C=C2CCC(=Cc3ccc(O)c(O)c3)C2=O)ccc1O [Compound 3i, 2-(3,4-Dihydroxybenzylidene)-5-(4-hydroxy-3-methoxybenzylidene)cyclopentanone]	inhibition type (mushroom tyrosinase [2]): mixed-competitive
11.3 µM		CCCCc1ccc(O)cc1O [4-Butylresorcinol, reference compound]	
168 µM	233 to 235 °C	CC(C)(C)c1cc(C=C2CCC(=Cc3ccc(O)cc3)C2=O)cc(C(C)(C)C)c1O [Compound 3f, 2-(3,5-Di-tert-butyl-4-hydroxybenzylidene)-5-(4-hydroxybenzylidene)cyclopentanone]	
> 200 µM		1-(3,4-Dihydroxyphenyl)-5-(4-hydroxy-3-methoxyphenyl)penta-1,4-dien-3-one [Compound 4g]	
189 µM	241 to 243 °C	COc1ccc(C=C2CCC(=Cc3ccc(O)cc3)C2=O)cc1 [Compound 3a, 2-(4-Hydroxybenzylidene)-5-(4-methoxybenzylidene)cyclopentanone]	
7.2 µM	93 to 95 °C	COc1cc(C=CC(=O)C=Cc2ccc(O)cc2)cc(OC)c1O [Compound 4d, 1-(4-Hydroxy-3,5-dimethoxyphenyl)-5-(4-hydroxyphenyl)penta-1,4-dien-3-one]	

Compound	IC50 (mushroom tyrosinase [1])	melting point	also measured
O=C1C(=Cc2ccc(O)cc2)CCC1=Cc1ccc(O)cc1O [Compound 3d, 2-(2,4-Dihydroxybenzylidene)-5-(4-hydroxybenzylidene)cyclopentanone]	1.74 µM		fold lower IC50 than kojic acid (mushroom tyrosinase [1]): about 16 fold; course of enzyme activity inhibition (mushroom tyrosinase [1]; diphenolase activity, L-DOPA, 25 °C, Figure 1): concentration-dependent; fold lower IC50 than 4-butylresorcinol (mushroom tyrosinase [1]; vs 4-butylresorcinol (11.27 μM)): ~6 fold; inhibition type (mushroom tyrosinase [2]): competitive; Body Weight (CD-1 mice; female CD-1 mice, 1,200 mg/kg): 27.3 ± 2.9 g; Drinking Water (CD-1 mice; female CD-1 mice, 1,200 mg/kg): 4.2 ± 0.5 mL/day; Food Intake (CD-1 mice; female CD-1 mice, 1,200 mg/kg): 4.0 ± 0.4 g/day; Body Weight (CD-1 mice; male CD-1 mice, 1,200 mg/kg): 30.9 ± 2.6 g; Drinking Water (CD-1 mice; male CD-1 mice, 1,200 mg/kg): 5.6 ± 0.6 mL/day; Food Intake (CD-1 mice; male CD-1 mice, 1,200 mg/kg): 5.1 ± 0.5 g/day; autopsy, changes in organs (CD-1 mice): no apparent changes
